The CheMixHub ionic liquid set
Values joined by “and” are separate entries in the source; they are usually repeats but may differ in a detail not shown here. Identical values can stand only once.

Test: xn = mol fraction of the nth substance listed

CCCC[P+](CC)(CC)CC.N#Cc1ccc[n-]1 + OCC(O)CO
100 kPa
Settings | electrical conductivity, 293.15 K [S/m] | viscosity, 293.15 K [mPa·s] | viscosity, 298.15 K [mPa·s] | viscosity, 303.15 K [mPa·s] | viscosity, 313.15 K [mPa·s]
x1 = 0.002 | 0.0013 | – | – | – | –
x1 = 0.004 | 0.0027 | 1395 | 880 | 562 | 226
x1 = 0.006 | 0.0041 | – | – | – | –
x1 = 0.008 | 0.0055 | – | – | – | –
x1 = 0.011 | 0.0073 | – | – | – | –
x1 = 0.014 | 0.009 | – | – | – | –
x1 = 0.018 | 0.0106 | 1500 | 950 | 599 | 234
x1 = 0.021 | 0.0118 | – | – | – | –
x1 = 0.026 | 0.0135 | – | – | – | –
x1 = 0.029 | 0.0143 | – | – | – | –
x1 = 0.033 | 0.0151 | – | – | – | –
x1 = 0.04 | 0.0162 | 1598 | 1015 | 648 | 256
x1 = 0.047 | 0.0175 | – | – | – | –
x1 = 0.058 | 0.0181 | 1701 | 1080 | 690 | 282
x1 = 0.068 | 0.0188 | – | – | – | –
x1 = 0.08 | 0.0186 | 1713 | 1086 | 690 | 277
x1 = 0.104 | 0.0187 | 1609 | 1023 | 655 | 268
x1 = 0.129 | 0.0185 | 1486 | 930 | 569 | 222
x1 = 0.187 | 0.018 | 1202 | 770 | 483 | 200
x1 = 0.259 | 0.0182 | 930 | 603 | 386 | 166
x1 = 0.34 | 0.0225 | 740 | 487 | 318 | 142
x1 = 0.442 | 0.0297 | 589 | 398 | 265 | 123
x1 = 0.577 | 0.0413 | 479 | 323 | 220 | 107
x1 = 0.743 | 0.0623 | 359 | 242 | 168 | 81
x1 = 0.85 | 0.0878 | 250 | 175 | 123 | 62
x1 = 1 | 0.147 | 187 | 137 | 104 | 62

CCCC[P+](CC)(CC)CC.N#Cc1ccc[n-]1 + OCCN(CCO)CCO
100 kPa
Settings | electrical conductivity [S/m] | viscosity [mPa·s]
293.15 K, x1 = 0.005 | 0.0013 | –
293.15 K, x1 = 0.012 | 0.0027 | –
293.15 K, x1 = 0.029 | 0.0046 | 980
293.15 K, x1 = 0.035 | 0.005 | –
293.15 K, x1 = 0.223 | – | 810
293.15 K, x1 = 0.459 | 0.0205 | –
298.15 K, x1 = 0.018 | – | 629
303.15 K, x1 = 0.223 | – | 341
303.15 K, x1 = 0.508 | – | 278

CCCCCC[n+]1ccn(C)c1.[Cl-] + OCCO
101 kPa
Settings | viscosity [mPa·s]
293.15 K, x2 = 0.4977 | 172.9
293.15 K, x2 = 0.6002 | 83.9
303.15 K, x2 = 0 | 4206
313.15 K, x1 = 0.0188 | 10.05
313.15 K, x2 = 0.6987 | 21.31
313.15 K, x2 = 0.8897 | 11.47
313.15 K, x2 = 0.9642 | 10.19
313.15 K, x2 = 0.9761 | 10.09
323.15 K, x1 = 0.0061 | 7.09
323.15 K, x2 = 0 | 783
323.15 K, x2 = 0.6002 | 24.77
323.15 K, x2 = 0.6987 | 15.34
323.15 K, x2 = 0.8998 | 8.19
323.15 K, x2 = 0.9642 | 7.38
333.15 K, x1 = 0.0061 | 5.28
333.15 K, x2 = 0.1526 | 191.8
333.15 K, x2 = 0.4977 | 29.57
333.15 K, x2 = 0.6987 | 11.45
333.15 K, x2 = 0.9532 | 5.61

CCCCCC[n+]1ccn(C)c1.[Cl-] + OC[C@H]1O[C@@](CO)(O[C@H]2O[C@H](CO)[C@@H](O)[C@H](O)[C@H]2O)[C@@H](O)[C@@H]1O + O
298.15 K, 101.3 kPa
Settings | electrical conductivity
x2 = 0, x1 = 4.23e-06 | 0.00276 S/m
x2 = 0, x1 = 7.11e-06 | 0.00451 S/m
x2 = 0, x1 = 1.01e-05 | 0.00631 S/m
x2 = 0, x1 = 1.293e-05 | 0.008 S/m
x2 = 0, x1 = 1.551e-05 | 0.00953 S/m
x2 = 0, x1 = 1.836e-05 | 0.01121 S/m
x2 = 0, x1 = 2.116e-05 | 0.0129 S/m
x2 = 0, x1 = 2.393e-05 | 0.0145 S/m
x2 = 0, x1 = 2.652e-05 | 0.016 S/m
x2 = 0, x1 = 2.919e-05 | 0.0175 S/m
x2 = 0.003591, x1 = 8.04e-06 | 0.00433 S/m
x2 = 0.003591, x1 = 1.174e-05 | 0.00611 S/m
x2 = 0.003591, x1 = 1.526e-05 | 0.00778 S/m
x2 = 0.003591, x1 = 1.864e-05 | 0.00936 S/m
x2 = 0.003591, x1 = 2.202e-05 | 0.0109 S/m
x2 = 0.003591, x1 = 2.53e-05 | 0.01242 S/m
x2 = 0.003591, x1 = 2.853e-05 | 0.0139 S/m
x2 = 0.003591, x1 = 3.177e-05 | 0.01532 S/m
x2 = 0.003591, x1 = 3.49e-05 | 0.0167 S/m
x2 = 0.003591, x1 = 3.779e-05 | 0.018 S/m
x2 = 0.007156, x1 = 6.71e-06 | 0.00314 S/m
x2 = 0.007156, x1 = 1.012e-05 | 0.00459 S/m
x2 = 0.007156, x1 = 1.35e-05 | 0.00603 S/m
x2 = 0.007156, x1 = 1.699e-05 | 0.00749 S/m
x2 = 0.007156, x1 = 2.028e-05 | 0.00888 S/m
x2 = 0.007156, x1 = 2.319e-05 | 0.0101 S/m
x2 = 0.007156, x1 = 2.608e-05 | 0.01131 S/m
x2 = 0.007156, x1 = 2.915e-05 | 0.0126 S/m
x2 = 0.007156, x1 = 3.212e-05 | 0.0138 S/m
x2 = 0.007156, x1 = 3.545e-05 | 0.01517 S/m
x2 = 0.0107, x1 = 7.99e-06 | 0.00313 S/m
x2 = 0.0107, x1 = 1.176e-05 | 0.00442 S/m
x2 = 0.0107, x1 = 1.521e-05 | 0.00559 S/m
x2 = 0.0107, x1 = 1.87e-05 | 0.00676 S/m
x2 = 0.0107, x1 = 2.207e-05 | 0.00787 S/m
x2 = 0.0107, x1 = 2.533e-05 | 0.00894 S/m
x2 = 0.0107, x1 = 2.851e-05 | 0.00998 S/m
x2 = 0.0107, x1 = 3.135e-05 | 0.0109 S/m
x2 = 0.0107, x1 = 3.442e-05 | 0.0119 S/m
x2 = 0.0107, x1 = 3.724e-05 | 0.0128 S/m
x2 = 0.01421, x1 = 1.053e-05 | 0.00345 S/m
x2 = 0.01421, x1 = 1.542e-05 | 0.00495 S/m
x2 = 0.01421, x1 = 2.022e-05 | 0.00641 S/m
x2 = 0.01421, x1 = 2.485e-05 | 0.00781 S/m
x2 = 0.01421, x1 = 2.901e-05 | 0.00905 S/m
x2 = 0.01421, x1 = 3.286e-05 | 0.0102 S/m
x2 = 0.01421, x1 = 3.675e-05 | 0.01135 S/m
x2 = 0.01421, x1 = 4.055e-05 | 0.0125 S/m
x2 = 0.01421, x1 = 4.424e-05 | 0.0136 S/m
x2 = 0.01421, x1 = 4.811e-05 | 0.0147 S/m
x2 = 0.0177, x1 = 9.25e-06 | 0.00262 S/m
x2 = 0.0177, x1 = 1.338e-05 | 0.0037 S/m
x2 = 0.0177, x1 = 1.736e-05 | 0.00474 S/m
x2 = 0.0177, x1 = 2.112e-05 | 0.00571 S/m
x2 = 0.0177, x1 = 2.447e-05 | 0.00658 S/m
x2 = 0.0177, x1 = 2.813e-05 | 0.00751 S/m
x2 = 0.0177, x1 = 3.139e-05 | 0.00835 S/m
x2 = 0.0177, x1 = 3.466e-05 | 0.00918 S/m
x2 = 0.0177, x1 = 3.742e-05 | 0.00987 S/m
x2 = 0.0177, x1 = 4.046e-05 | 0.0106 S/m
x2 = 0.02116, x3 = 0.9787 | 0.01832 S/m
x2 = 0.02116, x3 = 0.9788 | 0.014 S/m and 0.0154 S/m and 0.0169 S/m
